Test results published in US7223793B2, “Phenolic acid derivatives and composition for preventing or treating blood lipid level-related diseases comprising the same” (Bionutrigen Co., Ltd., priority 2001, dated 2007).

Experiments:
[1] = tested on: New Zealand White rabbits; assay: Abnormal fat-containing cells in liver of cholesterol-fed rabbits (Experimental Example 3); format: in vivo, rabbit; conditions: 1% cholesterol diet, 8 weeks; for Microscopic observation of liver cells (fatty liver): FIGS. 2a-2c; for Grade of proportion of abnormal fat-containing cells in the liver lobules around the central vein: grades 1+(0-25%), 2+(26-50%), 3+(51-75), 4+(76-100%), lovastatin 1 mg/kg or BN30028 0.05 wt %
Method: Thereafter, a piece of each organ was fixed in 10% neutral formalin for at least 24 hours. The fixed organ piece was washed sufficiently with tap water, dehydrated stepwise with 70%, 80%, 90% and 100% ethanol and, then, embedded in a paraffin by employing SHANDON, Histocentre 2, USA. The embedded organ piece was sectioned in a thickness of 4 μm with a microtome (LEICA, RM2045, Germany) and stained with H & E (hematoxylin and eosin). The stained organ specimen was made transparent with xylene, mounted with permount, and then observed under a microscope.
In order to quantitatively evaluate the effects of feeding a high cholesterol diet with test substances on liver tissues, the liver specimens prepared in step 3 of the Experimental Example 3 were observed under a microscope with referring to the procedure described by Fogt F. et al. (Fogt F. and Nanji A., Toxicology and Applied Pharmacology, 136, 87-93, 1996) and the procedure described by Keegan et al. (Keegan A., et al., Journal of Hepatology 23: 591-600, 1995). The specimens were classified into for grades: 1+(0-25%), 2+(26-50%), 3+(51-75) and 4+(76-100%) according to the proportion of abnormal fat-containing cells in the liver lobules around the central vein. The significant differences between the test groups were tested by student t-test using Microsoft excel (version 7.0) program

[2] = tested on: ICR mice; assay: Acute oral toxicity in mice (Experimental Example 5); format: in vivo
Method: The toxicity of orally administered BN30028 was tested as follows. Four-week-old specific pathogen-free ICR mice, 12 female mice and 12 male mice, were kept in a room under conditions of 22±3° C., 55±10% relative humidity and 12L/12D photoperiod. The mice was acclimated for one week before using in experiment. Fodder (Cheiljedang Co., mouse and rat fodder) and water were sterilized and freely fed to the mice.
BN30028 was dissolved in 0.5% Tween 80 to a concentration of […] and the solution was orally administered to the mice in an amount of 0.2 mL (1 g/kg), 0.4 mL (2 g/kg) or 0.8 mL (4 g/kg) per 20 g of mouse body weight. The solution was administered once for the 1 g/kg and 2 g/kg groups and twice for the 4 g/kg group. […] Also, on the 7th day, the mice were sacrificed and the internal organs were visually examined. From the day of the administration, the weight changes of the animals were recorded every other day to examine the effect of BN30028 on the reduction of body weight of animals.

Row | SMILES | Microscopic observation of liver cells (fatty liver) [1] | Grade of proportion of abnormal fat-containing cells in the liver lobules around the central vein [1] | Proportion of fat-modified cells compared to control ([1]; p<0.05) | Body weight change ([2]; oral 1 g/kg, 2 g/kg and 4 g/kg, 7 days after the administration) | LD50 ([2]; orally administered, female and male mice)
1 | CC[C@H](C)C(=O)O[C@H]1C[C@@H](C)C=C2C=C[C@H](C)[C@H](CC[C@@H]3C[C@@H](O)CC(=O)O3)[C@H]21 [Lovastatin, reference compound] | many cells containing excessive fat were observed around the central vein | 3.97 ± 0.15 | – | – | –
2 | COC(=O)C(Cc1ccccc1)NC(=O)CCc1ccc(O)c(O)c1 (stereo not shown) [BN30028, 2-[3-(3,4-dihydroxyphenyl)propionylamino]-3-phenyl propionic acid methyl ester] | almost all liver cells of the rabbits administered with BN30028 are of a normal shape | 3.57 ± 0.35 | significantly reduced | normal weight increase without any weight loss | more than 4 g/kg body weight
